Reference: US11117931B2, “Antimicrobial peptide derived from Hp1404 peptide and uses thereof” (priority 2017, dated 2021)
Where no end group is shown, it is not given here.

What was measured:
[1] = Stability against trypsin enzyme (RP-HPLC); format: in vitro ADME; conditions: 20 nM trypsin, 37° C., read-out: amount of remaining peptide; for remaining at 1 h, 200 μg/mL: reaction for 1 hour; for remaining at 2 h, 200 μg/mL: reaction for 2 hours
Experimental: To determine whether or not the peptides prepared by the method of Example 1 have stability against an enzyme, RP-HPLC (reverse-phase HPLC) was carried out. Specifically, 20 μg of the peptide was reacted with 100 μl of trypsin at concentration of 20 nM for 1 to 2 hours at 37° C. After the reaction, 20 μl of the reaction product was applied to RP-HPLC, and the amount of remaining peptide was examined.

[2] = system: lipopolysaccharide (LPS) isolated from P. aeruginosa; test: Binding ability between lipopolysaccharide (LPS) and peptide; conditions: peptide at 1×MIC
Experimental: By using the peptides prepared by the method of Example 1, binding to lipopolysaccharide (LPS), which is a constitutional component of a cell wall of Gram-negative bacteria, was examined. LPS used in the present invention was isolated from P. aeruginosa. Lipopolysacchride (0 to 100 μg/ml) was diluted with 10 mM sodium phosphate buffer (pH 7.2), reacted with each peptide at a concentration of 1× or 2×MIC, and then cultured with the bacteria at 2×10^5 CFU/ml. By measuring the absorbance at 600 nm, the binding ability to the peptide was determined. Additionally, after reacting 0.1% […] with the peptide (40 μM) in an incubator, the secondary structure was examined by circular dichroism (CD) spectroscopy.

[3] = system: S. aureus or P. aeruginosa membrane; test: Flow cytometry with propidium iodide; format: cell-based; conditions: 2×MIC, 1 hour at 37° C.
Experimental: Specifically, S. aureus or P. aeruginosa was treated for 1 hour at 37° C. with the mother peptide Hp1404, or Hp1404-T1c, Hp1404-T1d or Hp1404-T1e peptide (at concentration of 2×MIC). After that, the supernatant was removed by centrifuge (10,000 rpm) and stained with propidium iodide (PI, concentration of 10 μg/ml) for 30 minutes at 4° C. Thereafter, unbound propidium iodide was removed by centrifuge, and the problem of cell aggregation phenomenon was solved by adding physiological saline (PBS) in an amount of 1 ml.

plasmid DNA (pRSETB) = test: Binding between antimicrobial peptide and DNA (gel electrophoresis); conditions: peptide/DNA ratio 0.25:1 to 4:1, 10 minutes at 37° C.
Experimental: To figure out the working mechanism of the synthetic peptides of the present invention for showing the antimicrobial activity, electrophoresis was carried out to examine the possible binding of synthetic peptides, i.e., Hp1404, […], Hp1404-T1d and Hp1404-T1e, to DNA as an internal material of bacteria.
Specifically, after reacting the plasmid DNA (pRSETB, 260 ng) with the peptide at different ratio (i.e., peptide/DNA ratio is as follows for lane number 1 to lane number 8: DNA only, 0.25:1, 0.5:1, 1:1, 1.5:1, 2:1, 3:1, and 4:1. respectively) for 10 minutes at 37° C., they were subjected to electrophoresis using 1% agarose gel followed by ethidium bromide (EtBr) staining and UV visualization.

[4] = system: Pseudomonas aeruginosa strain 1034; test: In vivo antimicrobial activity, infected skin wound; parameters: species or system BALB/c mouse; number of colonies from skin tissues: reference not given here; conditions: intracutaneous
Experimental: By using Hp1404-T1e found to have the most excellent antimicrobial activity among the peptides that are prepared by the method of Example 1, in vivo antimicrobial activity was measured. Specifically, among the Pseudomonas aeruginosa strains, strain 1034 was selected and tested. The strain was prepared by washing 3 times with PBS buffer. Ciprofloxacin antibiotic was used as a control group. A BALB/c mouse (6 week old) was shaved clean and a wound with pre-determined size was created thereon. Then, the wound site was injected intracutaneously with Pseudomonas aeruginosa strain 1034 ([…], 2×10^5 CFU/ml). After the bacterial infection, the peptide and antibiotic, each prepared at a concentration of 0.1 mg/ml and 0.2 mg/ml, respectively, were intracutaneously injected, and the observation was made everyday. On each day, the skin tissues were sampled and smeared on an NB solid medium. The smeared medium was incubated in an incubator for 18 hours, and the number of grown colonies was counted and expressed in %.

[5] = system: outer membrane of P. aeruginosa; test: Outer membrane effect (NPN fluorescence); format: cell-based; conditions: peptide at 1×, 2× or 4×MIC
Experimental: By using the peptides prepared by the method of Example 1, effect of the peptide on the outer membrane and inner membrane of bacteria was examined. […] However, once the hydrophobic part is exposed as a result of damage occurring in cell wall, NPN emits fluorescence. After culturing each strain in TSB and NB medium, the strain was adjusted such that it has OD600 value of 0.2 in 5 mM HEPES buffer solution. After allowing the reaction to occur between 10 μM NPN dissolved in 95% ethanol and the bacteria by adding them in a 96-well black plate, the peptide at a concentration of 1×, 2× or 4×MIC and 0.1% Triton X-100 were further added, and then the fluorescence was measured.

Substance | remaining at 1 h, 200 μg/mL [1] [%] | remaining at 2 h, 200 μg/mL [1] [%] | binding to LPS, rank order [2] | propidium iodide fluorescence signal shift (membrane damage) [3] | binding to DNA (plasmid DNA (pRSETB)) | wound healing ([4]; 0.1 mg/ml and 0.2 mg/ml, observed everyday) | number of colonies from skin tissues ([4]; Day 5, 0.1 mg/ml treatment condition) [%] | number of colonies from skin tissues ([4]; Day 5, 0.2 mg/ml treatment condition) [%] | NPN fluorescence (effect on outer membrane) [5]
ILKKLLKKVKKI-NH2 [Hp1404-T1e] | ≥ 80 | 80 | binding to LPS increases in order of Hp1404-T1e, Hp1404-T1d, Hp1404-T1c, and Hp1404 | no such shift of fluorescence signal | bind to DNA | wound healing effect in peptide concentration-dependent manner | 40 | 20 | 
GILGKLWEGVKSIF-NH2 [Hp1404] | 60 | 45 | binding to LPS increases in order of Hp1404-T1e, Hp1404-T1d, Hp1404-T1c, and Hp1404 | bacteria membrane was damaged | did not bind to any DNA |  |  |  | increases in treatment concentration-dependent manner
ILKKLLKKVKSI-NH2 [Hp1404-T1d] | ≥ 80 | 80 | binding to LPS increases in order of Hp1404-T1e, Hp1404-T1d, Hp1404-T1c, and Hp1404 | no such shift of fluorescence signal | bind to DNA |  |  |  | 
